Test systems include CCRF-CEM leukemia; COLO 205 colon; HCC-2998 colon; HCT-15 colon; NCI-H460 lung; SF-295 CNS; SF-539 CNS; SK-MEL-28 melanoma; SW-620 colon; TK-10 renal.
What all share (assay): DTP human tumour cell line panel, 48 h

Consider 8 molecules from PubChem BioAssay (NCI).

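Values below derive from 48-hour exposures of cells grown in 96-well plates, with endpoints linearly interpolated between the two concentrations bracketing the appropriate inhibition level. The concentration for 50% growth inhibition is given as GI50. TGI is the concentration that stops growth completely.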

For orientation: GI50 means the concentration at which growth is held to half of that of the control. A word on the TGI: it is the concentration giving total growth inhibition. The low end stands for more potent growth arrest, the high end for less potent growth arrest. Take `CCCCCCCCCCCCCCCCCCOc1ccccc1COP(=O)(O)OOCC[N+](C)(C)C`: the GI50 in the assay on CCRF-CEM leukemia was 0.751 µM; in the assay with COLO 205 colon, 1.04 µM; in the assay with HCC-2998 colon, 0.787 µM; with HCT-15 colon, 1.64 µM; with NCI-H460 lung it was 2.81 µM; in the assay with SF-295 CNS, 1.23 µM. In addition, the GI50 is 1.19 µM with SF-539 CNS, 1.59 µM in the assay on SK-MEL-28 melanoma, 1.43 µM in the assay on SW-620 colon and 1.35 µM in the assay with TK-10 renal. The total growth inhibition concentration (TGI) worked out at 2.02 µM in the assay with CCRF-CEM leukemia; 2.57 µM with COLO 205 colon; 1.6 µM in the assay on HCC-2998 colon; 7.87 µM with HCT-15 colon; 12.5 µM in the assay on NCI-H460 lung; 4.32 µM in the assay on SF-295 CNS. Also, the TGI with SF-539 CNS amounted to 3.02 µM; in the assay on SK-MEL-28 melanoma it was 6.2 µM; in the assay on SW-620 colon, 5.36 µM; in the assay on TK-10 renal, 4.49 µM.
On to `O=C1OC(c2ccccc2Br)=N/C1=C/c1ccccc1`, for which the TGI is over 100 µM in the assay on CCRF-CEM leukemia; 39.4 µM in the assay with HCC-2998 colon; over 100 µM with HCT-15 colon; over 100 µM in the assay on NCI-H460 lung; over 100 µM in the assay with SF-295 CNS; 37.9 µM with SF-539 CNS. Also, the concentration for total growth inhibition (TGI) in the assay on SK-MEL-28 melanoma, with SW-620 colon and with TK-10 renal was over 100 µM each time.
Take `COC(=O)Cc1c(C2C(CC(=O)OC)c3ccccc3N2C2OC(CO)C(O)C(O)C2O)[nH]c2ccccc12` (centres undefined): the TGI with CCRF-CEM leukemia, in the assay with COLO 205 colon, in the assay on HCC-2998 colon, in the assay with HCT-15 colon, with NCI-H460 lung and in the assay on SF-295 CNS was over 100 µM in each case. Moreover, the total growth inhibition concentration (TGI) with SK-MEL-28 melanoma, with SW-620 colon and in the assay with TK-10 renal was over 100 µM each time.
With `NC(CSCSCC(N)C(=O)O)C(=O)O` (centres undefined), the TGI in the assay on CCRF-CEM leukemia is over 71.2 µM; with COLO 205 colon, over 225 µM; in the assay on HCC-2998 colon, over 225 µM; in the assay on HCT-15 colon it was over 225 µM; with NCI-H460 lung it was over 225 µM; with SF-295 CNS it was over 225 µM. Besides, the TGI in the assay on SF-539 CNS, with SK-MEL-28 melanoma and in the assay on SW-620 colon was over 225 µM throughout.
For `CC(C)(C)CI`, the TGI in the assay with CCRF-CEM leukemia is 50.8 µM; in the assay on COLO 205 colon, 47 µM; with HCC-2998 colon it was 37.2 µM; with HCT-15 colon, over 100 µM; in the assay on NCI-H460 lung, 81.2 µM; in the assay with SF-295 CNS, 33.9 µM. For the same molecule, the TGI is over 100 µM with SF-539 CNS, over 100 µM in the assay with SK-MEL-28 melanoma, 36.1 µM in the assay on SW-620 colon and over 100 µM in the assay on TK-10 renal.
Take `O=c1oc2ccccc2n1P(=O)(Oc1ccc(Cl)cc1)n1c(=O)oc2ccccc21`: the TGI in the assay on CCRF-CEM leukemia, in the assay with COLO 205 colon, in the assay on HCC-2998 colon, in the assay with SF-295 CNS, with SF-539 CNS and in the assay with SK-MEL-28 melanoma was over 100 µM throughout. For the same molecule, the TGI with SW-620 colon and in the assay on TK-10 renal was over 100 µM throughout.
As for `C#CCNC(=O)CC[C@@H](C)[C@H]1CC[C@H]2[C@@H]3CC[C@@H]4CC(=O)CC[C@]4(C)[C@H]3CC[C@]12C`, the GI50 is 4.39 µM in the assay with CCRF-CEM leukemia; 15.7 µM with COLO 205 colon; 19.7 µM in the assay on HCC-2998 colon; 12.1 µM in the assay on HCT-15 colon; 22 µM in the assay with NCI-H460 lung; 19.3 µM in the assay on SF-295 CNS. The GI50 was 14.1 µM with SF-539 CNS, 16.8 µM with SK-MEL-28 melanoma, 17.8 µM with SW-620 colon and 18 µM in the assay with TK-10 renal. The TGI in the assay with CCRF-CEM leukemia was found to be 24.1 µM; with COLO 205 colon it was 32.5 µM; with HCC-2998 colon, 54.1 µM; in the assay with HCT-15 colon it was 36.3 µM; with NCI-H460 lung, 51.2 µM; in the assay on SF-295 CNS, 49.4 µM. The TGI worked out at 30.4 µM in the assay with SF-539 CNS, 36 µM in the assay on SK-MEL-28 melanoma, 43.7 µM in the assay on SW-620 colon and 44.5 µM with TK-10 renal.
`CC1OC(CO)(n2cnc3c(N)ncnc32)C(O)C1O` (centres undefined): the TGI in the assay with CCRF-CEM leukemia, in the assay with COLO 205 colon, in the assay on HCC-2998 colon, in the assay on HCT-15 colon, in the assay with NCI-H460 lung and in the assay on SF-295 CNS was over 100 µM in each case. In addition, the TGI in the assay with SF-539 CNS, in the assay on SK-MEL-28 melanoma and with SW-620 colon was over 100 µM throughout.
